Results: publication PMC12490008 (Environmental Science & Technology, 2025)
*1 amine or outer side, *2 acyl side, *3 side chain or, on linkers, in order; H or OH if unused. Where a SMILES comes first, the peptide text is derived from it. Bridges are numbered along the chain shown (N, C = ends). [ ]: non-standard residue; d: D form. hTyr = N[C@@H](CCc1ccc(O)cc1)C(=O)O; NMeA = CN[C@@H](C)C(=O)O; CO = O=C([*:1])[*:2]

Key:
[1] = test system: River Chriesbach biofilm suspension (100%)
[2] = test system: River Chriesbach biofilm suspension
[3] = test system: River Chriesbach biofilm suspension (100%, 10%, 1%)
[4] = test system: River Chriesbach river water

Molecule	1.3d removal, 2% metabolite [1]	1.3d removal, 10% metabolite [1]	1.3d removal, 100% metabolite [1]	Half-lives (h), 10% metabolite [1]	Half-lives (h), 100% metabolite [1]	Lag-time (h), 10% metabolite [1]	Lag-time (h), 100% metabolite [1]	removal within 3 days [2]	1d removal, 1% biofilm [3]	1d removal, 10% biofilm [3]	1d removal, 100% biofilm [3]	Half-lives (h), 1% biofilm [3]	Half-lives (h), 10% biofilm [3]	Half-lives (h), 100% biofilm [3]	Lag-time (h), 1% biofilm [3]	Lag-time (h), 10% biofilm [3]	Lag-time (h), 100% biofilm [3]	1d removal, River water [4]	Half-lives (h), River water [4]	Lag-time (h), River water [4]	further results
Cyanopeptolin A	100%	100%	97%	6.5 h	5.8 h	6.1 h	0.0 h	more than 50%	10%	57%	98%	105.9 h	35.9 h	5.1 h	89.7 h	0.0 h	0.8 h	3%	n.d.(decay)	n.d.(decay)	
Cyanopeptolin C	100%	100%	82%	8.5 h	18.1 h	8.5 h	9.6 h	more than 50%	1%	29%	80%							-3%			
Aerucyclamide A	64%	43%	21%	34.9 h	56.9 h	34.8 h	56.9 h	20%	-14%	-2%	-2%	n.d.(decay)	n.d.(decay)	66.9 h	n.d.(decay)	n.d.(decay)	66.8 h	-23%	n.d.(decay)	n.d.(decay)	Half-lives (h), 2% metabolite [1]: 28.4 h; Lag-time (h), 2% metabolite [1]: 28.0 h
CC[C@H](C)[C@@H]1NC(=O)[C@H](NC(=O)N[C@@H](CCCNC(=N)N)C(=O)O)CCCCNC(=O)[C@H](Cc2ccccc2)NC(=O)[C@H](C)N(C)C(=O)[C@H](CCc2ccc(O)cc2)NC1=O [Anabaenopeptin F] ({Arg-CO}-[dK]I[hTyr][NMeA]F; lactam 1-C)	100%	99%	62%	10.8 h	30.2 h			more than 50%	-13%	28%	83%		106.3 h	11.5 h				-44%	n.d.(decay)		
Anabaenopeptin A	100%	98%	46%	13.4 h	34.9 h	12.3 h	34.8 h	32-35%	-9%	25%	86%	177.1 h	103.7 h	11.5 h	98.1 h	102.8 h	10.2 h	-28%	n.d.(decay)	n.d.(decay)	Half-lives (h), 2% metabolite [1]: 7.2 h; Lag-time (h), 2% metabolite [1]: 6.7 h; expected river water half-lives [4]: 8.6 to 10.6 days
